{
  "source": "patent US20220233566A1",
  "about": "“NOVEL CARBONATE COMPOUND HAVING PYRROLOPYRIMIDINE SKELETON OR PHARMACEUTICALLY ACCEPTABLE SALT THEREOF” (TAIHO PHARMACEUTICAL CO., LTD., priority 2019, published 2022)",
  "key": {"[1]": {"assay": "Presence of prodrug in mouse and absorbency (plasma AUC after oral administration)", "format": "in vivo", "settings": "male, Balb/cA, mouse, 9.9 umol/kg, mice, 9.9 μmol/kg, administered compound itself in plasma, read-out: AUC0-6hr", "experimental": "The dosage amounts of the compounds of Comparative Examples 1 to 5 and Examples 1 to 26 are those (mole/10 mL/kg) shown in Tables. Solutions for administration were prepared with an 0.5% aqueous solutions of HPMC so as to satisfy the dosage amounts.\nNote that, the “amount of mole/10 mL/kg” means as follows: for example “10 mmol/10 mL/kg” means that 10 mmol of a test compound per body-weight (1 kg) of a mouse was dispersed or dissolved in a solution (10 mL) for administration. The same applies hereinafter.\nThe solutions for administration prepared above were orally administered to mice (Balb/cA, male) not fasted each by use of an oral administration sonde.\nThe mice were anesthetized with isoflurane 0.5, 1, 2, 4 and 6 hours after administration and blood was taken from the facial vein by use of a specific needle (animal lancet) and a heparin-coated hematocrit tube.\nThe blood sampled was immediately centrifuged (13000 rpm, 2 minutes, 4° C.) to prepare the plasma samples. After proteins were removed from the plasma samples, the concentrations of the test compound in the plasma samples were measured by LC/MS/MS.\nThe value of “area under the curve” (AUC) of drug concentration in blood versus time was calculated using analysis software such as Phoenix (registered trademark) WinNonlin (registered trademark).\nIn Table 3, “Comparative Example 1” and “Comparative Example 2” represent the “compound (Br form) of Comparative Example 1” and the “compound (I form) of Comparative Example 2”, respectively. In Table 4, “Comparative Example 6” represents the “compound (C1 form) of Comparative Example 6”."}, "A431": {"tested_on": "A431", "assay": "Growth suppression activity to human tumor cell line (Evaluation 2)", "format": "cell-based", "settings": "Homo sapiens, A-431, 72 h, Human epidermoid carcinoma, A431, 3 days", "experimental": "(§1) Human tumor cell lines different in type were suspended in mediums, seeded in individual wells of a multi-well plate and cultured. On the day after initiation of culture, serially diluted solutions of a compound were added. Culture was carried out for further 3 days. Cells were counted by a CellTiter-Glo (manufactured by Promega KK) in accordance with the protocol recommended by Promega KK. Cell viability was calculated in accordance with the equation shown below and the concentration (IC50 (nM)) of the compound at which 50% of cell growth is inhibited was obtained.\n(§2) T: Intensity of light emitted from a well containing a compound\n(§3) C: Intensity of light emitted from a well containing no compound"}, "A549": {"tested_on": "A549", "assay": "Growth suppression activity to human tumor cell line (Evaluation 2)", "format": "cell-based", "settings": "A549, 72 h, Human lung cancer, A549, 3 days", "experimental": "as §1, §2, §3"}, "H1650": {"tested_on": "H1650", "assay": "Growth suppression activity to human tumor cell line (Evaluation 2)", "format": "cell-based", "settings": "NCI-H1650, 72 h, Human lung cancer, H1650, 3 days", "experimental": "as §1, §2, §3"}, "H2122": {"tested_on": "H2122", "assay": "Growth suppression activity to human tumor cell line (Evaluation 2)", "format": "cell-based", "settings": "NCI-H2122, 72 h, Human lung cancer, H2122, 3 days", "experimental": "as §1, §2, §3"}, "H358": {"tested_on": "H358", "assay": "Growth suppression activity to human tumor cell line (Evaluation 2)", "format": "cell-based", "settings": "NCI-H358, 72 h, Human lung cancer, H358, 3 days", "experimental": "as §1, §2, §3"}, "HCC827": {"tested_on": "HCC827", "assay": "Growth suppression activity to human tumor cell line (Evaluation 2)", "format": "cell-based", "settings": "Homo sapiens, HCC827, 72 h, Human lung cancer, HCC827, 3 days", "experimental": "as §1, §2, §3"}, "RKO": {"tested_on": "RKO", "assay": "Growth suppression activity to human tumor cell line (Evaluation 2)", "format": "cell-based", "settings": "72 h, Human colorectal cancer, 3 days", "experimental": "as §1, §2, §3"}, "SK-BR-3": {"tested_on": "SK-BR-3", "assay": "Growth suppression activity to human tumor cell line (Evaluation 2)", "format": "cell-based", "settings": "Homo sapiens, SK-BR-3, 72 h, Human breast cancer, SK-BR-3, 3 days", "experimental": "as §1, §2, §3"}, "A427": {"tested_on": "A427", "assay": "Growth suppression activity to human tumor cell line (Evaluation 3)", "format": "cell-based", "settings": "A-427, 72 h; Human lung cancer, A427, 3 days", "experimental": "as §1, with “of a” for “of the”\nas §2, §3"}, "H520": {"tested_on": "H520", "assay": "Growth suppression activity to human tumor cell line (Evaluation 3)", "format": "cell-based", "settings": "NCI-H520, 72 h; Human lung cancer, H520, 3 days", "experimental": "as §1, with “of a” for “of the”\nas §2, §3"}, "[2]": {"tested_on": "human brain tumor cell line (U-87 MG)", "assay": "Evaluation 1 of antitumor effect and toxicity in mouse (U-87 MG subcutaneous transplant)", "format": "in vivo, BALB/cA Jcl-nu/nu mice", "experimental": "(§4) The day of grouping mice was determined Day 0.\nIRs of Comparative Example 2-compound administration group and Example 1-compound administration group on the final day of evaluation (Day 6 in Comparative Example 2 and Day 13 in Example 1) are shown in FIG. 1 and BWC versus elapsed days is shown in FIG. 2."}, "[3]": {"tested_on": "human hematopoietic organ tumor cell line (MV-4-11)", "assay": "Evaluation 3 of antitumor effect and toxicity in mouse (MV-4-11 subcutaneous transplant)", "format": "in vivo", "experimental": "as §4\nOn the final day of evaluation, the blood cell components (lymphocytes: LYMPH (Lymphocytes)) of individual groups were analyzed."}, "[4]": {"tested_on": "human brain tumor cell line (U-87 MG)", "assay": "Evaluation 2 of antitumor effect and toxicity in mouse (U-87 MG subcutaneous transplant)", "format": "in vivo, BALB/cA Jcl-nu/nu mice", "settings": "Day 6, oral every day, Example 5 14.6 mg/kg/day vs Comparative Example 2 12 mg/kg/day", "experimental": "as §4\nIn order to evaluate “effect versus toxicity”, a ratio based on IR and BWC (effect index) was obtained, and Example 5-compound administration group was compared to Comparative Example 2-compound administration group.\nEffect indexes of Comparative Example 2-Compound (I form) and Example 5-compound administration groups on Day 6 are shown in FIG. 3."}, "[5]": {"settings": "U-87 MG, oral every day from Day 1, Example 1 15.4 mg/kg/day"}, "[6]": {"settings": "MV-4-11, oral every day from Day 1, Example 1 10.8 mg/kg/day"}},
  "data": [
    {"compound": "Nc1ncnc2c1c(Cl)cn2[C@@H]1O[C@H](CO)[C@@H](O)[C@@H]1F", "note": "[Comparative Example 6, (2R,3R,4S,5R)-5-(4-amino-5-chloro-7H-pyrrolo[2,3-d]pyrimidin-7-yl)-4-fluoro-2-(hydroxymethyl) tetrahydrofuran-3-ol]", "values": [
      {"measurement": "AUC(0-t)", "setting": "[1]", "value": 2070, "unit": "nM·h"},
      {"measurement": "IC50", "setting": "A431", "value": 0.124, "unit": "µM"},
      {"measurement": "IC50", "setting": "A549", "value": 0.054, "unit": "µM"},
      {"measurement": "IC50", "setting": "H1650", "value": 0.031, "unit": "µM"},
      {"measurement": "IC50", "setting": "H2122", "value": 0.058, "unit": "µM"},
      {"measurement": "IC50", "setting": "H358", "value": 0.273, "unit": "µM"},
      {"measurement": "IC50", "setting": "HCC827", "value": 0.795, "unit": "µM"},
      {"measurement": "IC50", "setting": "RKO", "value": 0.135, "unit": "µM"},
      {"measurement": "IC50", "setting": "SK-BR-3", "value": 0.088, "unit": "µM"}
    ]},
    {"compound": "Nc1ncnc2c1c(I)cn2[C@@H]1O[C@H](CO)C(O)C1(F)F", "note": "(stereo partly drawn) [Comparative Example 7, (2R,3R,4S,5R)-5-(4-amino-5-iodo-7H-pyrrolo[2,3-d]pyrimidin-7-yl)-4,4-difluoro-2-(hydroxymethyl) tetrahydrofuran-3-ol, reference compound]", "values": [
      {"measurement": "IC50", "setting": "A427", "value": 1.14, "unit": "µM"},
      {"measurement": "IC50", "setting": "H520", "value": 0.465, "unit": "µM"}
    ]},
    {"compound": "Nc1ncnc2c1c(I)cn2[C@@H]1O[C@H](CO)[C@@H](OC(=O)OC2CCCC2)[C@@H]1F", "note": "[Example 1, (2R,3R,4S,5R)-5-(4-amino-5-iodo-7H-pyrrolo[2,3-d]pyrimidin-7-yl)-4-fluoro-2-(hydroxymethyl)tetrahydrofuran-3-yl cyclopentyl carbonate]", "values": [
      {"measurement": "antitumor effect (tumor-growth inhibition rate, IR)", "setting": "[2]; [5]", "value": "high antitumor effect"},
      {"measurement": "effect on body weight (BWC)", "setting": "[2]; [5]", "value": "mild"},
      {"measurement": "continuation of administration compared to Comparative Example 2-compound administration group", "setting": "[2]; U-87 MG, oral every day, Example 1 15.4 mg/kg/day vs Comparative Example 2 12 mg/kg/day", "value": "longer"},
      {"measurement": "final day of evaluation (administration continued as long as weight loss was acceptable, until 20% or more)", "setting": "[2]; oral every day, Comparative Example 2 12 mg/kg/day, Example 1 15.4 mg/kg/day", "value": 13, "unit": "days"},
      {"measurement": "antitumor effect (RTV)", "setting": "[3]; [6]", "value": "remarkable antitumor effect (tumor regression was confirmed)"},
      {"measurement": "effect on body weight and hematological toxicity (BWC, lymphocytes T/C %)", "setting": "[3]; [6]", "value": "low"},
      {"measurement": "continuation of administration compared to Comparative Example 2-compound administration group", "setting": "[3]; MV-4-11, oral every day, Example 1 10.8 mg/kg/day vs Comparative Example 2 12 mg/kg/day", "value": "longer"}
    ]},
    {"compound": "CC(C)OC(=O)O[C@H]1[C@H](F)[C@H](n2cc(I)c3c(N)ncnc32)O[C@@H]1CO", "note": "[Example 5, (2R,3R,4S,5R)-5-(4-Amino-5-iodo-7H-pyrrolo[2,3-d]pyrimidin-7-yl)-4-fluoro-2-(hydroxymethyl)tetrahydrofuran-3-yl isopropyl carbonate]", "values": [
      {"measurement": "effect versus toxicity (effect index, ratio based on IR and BWC)", "setting": "[4]", "value": "high compared to that of Comparative Example 2-compound administration group"}
    ]}
  ]
}
